One assay concerns Miapaca-2 cells. As to the kind of experiment: MiaPaca-2 Combination Cell proliferation Assay (1) with cobimetinib. In kind it is cell-based. The conditions noted are these: MiaPaca-2 cell proliferation, read-out: MiaPaca-2 Combo (1) IC50.
Another assay relates to WM3629 cells. As to the kind of experiment: WM3629 Cell Proliferation Assay (1). In kind it is cell-based. As to the method: WM3629 Cell Proliferation Assay (1)
WM3629 cells (#WM3629-01-0001) are obtained from Rockland Immunochemicals Inc (Gilbertsville, PA). Briefly, cells were grown in MCDB 153 medium (Sigma, #M7403, St. Louis, MO) supplemented with 20% Leibovitz's L-15 (ThermoFisher #11415-064, Waltham, MA), 2% heat inactivated fetal bovine serum (ThermoFisher, #A3840001, Waltham, MA), 5 μg/mL Insulin (Bovine Pancreas) (Sigma, #10516, St. Louis, MO), 1.68 mM Calcium Chloride (Sigma, #C-34006, St. Louis, MO) and 1% Penicillin/Streptomycin/L-Glutamine (ThermoFisher #10378016, Waltham, MA) at 37° C., 5% CO2, and 95% humidity. Cells are expanded until reaching 70-95% confluency at which point they are subcultured or harvested for assay use. A serial dilution of test compound is dispensed into a 96-well black clear bottom plate in triplicate. Four thousand five hundred cells are added per well in 200 μL complete growth medium in the 96-well plate. Plates are incubated for 67-72 hours at 37° C., 5% CO2, and 95% humidity. At the end of the incubation, 40 μL of a 440 μM solution of resazurin (Sigma, #199303, St. Louis, MO) in PBS is added to each well of the plate and plates are incubated for an additional 6-7 hours at 37° C., 5% CO2, and 95% humidity. Plates are read on a Synergy2 or equivalent reader (Biotek, Winooski VT) using an excitation of 540 nm and an emission of 600 nm. Data is analyzed using Prism software (GraphPad, San Diego, CA) to calculate IC50 values.

Molecules are shown by their SMILES. A value given as a limit tells only on which side of the number the result lay.

One may read the IC50 as the concentration at which inhibition is half-maximal. With `COC(C)(C)c1cc(C(=O)Nc2ccc(C)c(-c3cc(-c4ccnc(NC(=O)C5CC5)c4)cnn3)c2)ccn1` [Example 319], in the assay on Miapaca-2 cells, the IC50 is at most 100 nM.

Turning to `CC(=O)Nc1cc(-c2cncc(-c3cc(NC(=O)c4ccnc(C(F)(F)F)c4)ccc3C)n2)ccn1` [Example 29], the IC50 in the assay on Miapaca-2 cells was at most 100 nM.

For `COC(=O)Nc1cc(-c2cc(-c3cc(NC(=O)c4ccnc(C(C)(C)F)c4)c(F)cc3C)ccn2)ccn1` [Example 302], the half-inhibitory concentration (IC50) in the assay with Miapaca-2 cells and in the assay on WM3629 cells was at most 100 nM each time.

Regarding `CNC(=O)c1cc(-c2cnnc(-c3cc(NC(=O)c4ccnc(C(C)(C)F)c4)ccc3C)c2)ccn1` [Example 325], the IC50 with WM3629 cells is at most 100 nM.

Turning to `CNC(=O)c1cc(-c2nccc(-c3cc(NC(=O)c4ccnc(C(F)(F)F)c4)ccc3C)n2)ccn1` [Example 25], the IC50 in the assay with Miapaca-2 cells is at most 100 nM.

On to `CNC(=O)c1cc(-c2cc(-c3cc(NC(=O)c4ccnc(C(F)(F)F)c4)ccc3C)cc(C3CC3)n2)ccn1` [Example 27], for which the IC50 in the assay on Miapaca-2 cells was 500 to 1000 nM.

With `COC(=O)Nc1cc(-c2cc(-c3cc(NC(=O)c4ccnc(C(C)(C)C#N)c4)cnc3C)ccn2)ccn1` [Example 297], the half-inhibitory concentration (IC50) in the assay with Miapaca-2 cells is at most 100 nM.

For `Cc1ccc(NC(=O)c2ccnc(C(C)(C)F)c2)cc1-c1cc(-c2ccnc(NC(=O)C3CC3)c2)cnn1` [Example 315], the IC50 with Miapaca-2 cells and with WM3629 cells was at most 100 nM each time.

Take `CC(=O)Nc1cc(-c2cccc(-c3cc(NC(=O)c4ccnc(C(F)(F)F)c4)ccc3C)c2)ncn1` [Example 30]: in the assay with Miapaca-2 cells, the IC50 is at most 100 nM.

Regarding `Cc1ccc(NC(=O)c2cnn(C(C)(C)C)c2)cc1-c1cc(-c2ccnc(NC(=O)C3CC3)c2)cnn1` [Example 321], in the assay on WM3629 cells, the half-maximal inhibitory concentration (IC50) was at most 100 nM.

As to `Cc1ccc(NC(=O)c2ccnc(C(C)(C)C#N)c2)cc1-c1ccnc(-c2ccnc3c2CC(=O)N3)c1` [Example 23], the IC50 in the assay on Miapaca-2 cells is 100 to 500 nM.

Turning to `CNC(=O)c1cc(-c2cnnc(-c3cc(NC(=O)c4ccnc(C(F)F)c4)ccc3C)c2)ccn1` [Example 327], in the assay on WM3629 cells, the IC50 lay in the range of 1000 to 10000 nM.

In the case of `COC(=O)Nc1cc(-c2cc(-c3cc(NC(=O)c4ccnc(C(C)(C)C#N)c4)c(F)cc3C)ccn2)ccn1` [Example 308], the IC50 in the assay on Miapaca-2 cells and in the assay on WM3629 cells was at most 100 nM throughout.

For the molecule `COC(=O)Nc1cc(-c2cccc(-c3cc(NC(=O)c4ccnc(C(C)(C)C#N)c4)cnc3C)c2)ccn1` [Example 282], the IC50 in the assay with Miapaca-2 cells is at most 100 nM.

Consider `COC(=O)Nc1cc(-c2nccc(-c3cc(NC(=O)c4ccnc(C(C)(C)F)c4)c(F)cc3C)n2)ccn1` [Example 304], for which the IC50 with Miapaca-2 cells and with WM3629 cells was at most 100 nM throughout.

Turning to `CC(=O)Nc1cc(-c2cccc(-c3cc(NC(=O)c4ccnc(C(F)(F)F)c4)ccc3C)c2)ccn1` [Example 28], the concentration for half-maximal inhibition (IC50) in the assay on Miapaca-2 cells is at most 100 nM.

As to `CC(=O)Nc1cc(-c2cc(-c3cc(C(=O)Nc4ccnc(C(F)(F)F)c4)ccc3C)ccn2)ccn1` [Example 26], the IC50 in the assay on Miapaca-2 cells was at most 100 nM.

Regarding `COC(=O)Nc1cc(-c2nccc(-c3cc(NC(=O)c4ccnc(C(C)(C)C#N)c4)c(F)cc3C)n2)ccn1` [Example 303], the IC50 in the assay on Miapaca-2 cells and with WM3629 cells was at most 100 nM in each case.

Take `CC(=O)Nc1cc(-c2nccc(-c3cc(NC(=O)c4ccnc(C(F)(F)F)c4)ccc3C)n2)ccn1` [Example 24]: the IC50 with Miapaca-2 cells was at most 100 nM.

As for `CNC(=O)c1cc(-c2cc(-c3cc(NC(=O)COCC4CC4)ccc3C)ccn2)ccn1` [Example 358], the IC50 in the assay on Miapaca-2 cells was 1000 to 10000 nM.

(Values after US12319655B2, “RAF kinase inhibitors and methods of use thereof” (Deciphera Pharmaceuticals, LLC, priority 2021, dated 2025).)
